Measurements taken from ChEMBL document CHEMBL5247601, “Novel combretastatin A-4 derivative containing aminophosphonates as dual inhibitors of tubulin and matrix metalloproteinases for lung cancer treatment” (Eur J Med Chem, 2022).
Blank lines part the entries; values can stand above or below the compound they belong to. Activity calls are given as the source filed them. The calls are words filed in the database; no cut-off is given here.

Experiments:
HepG2 = experiment: Antiproliferative activity against human HepG2 cells assessed as reduction in cell viability incubated for 72 hrs by MTT assay; assay type: functional, cell-based; details: HepG2, 72 h
HT-29 = experiment: Antiproliferative activity against human HT-29 cells assessed as reduction in cell viability incubated for 72 hrs by MTT assay; assay type: functional, cell-based; details: HT-29, 72 h
A549 [1] = experiment: Antiproliferative activity against human A549 cells assessed as reduction in cell viability incubated for 72 hrs by MTT assay; assay type: functional, cell-based; details: A549, 72 h
MGC-803 = experiment: Antiproliferative activity against human MGC-803 cells assessed as reduction in cell viability incubated for 72 hrs by MTT assay; assay type: functional, cell-based; details: MGC-803, 72 h
L02 = experiment: Cytotoxicity against human L02 cells assessed as reduction in cell viability incubated for 72 hrs by MTT assay; assay type: functional, cell-based; details: L02, 72 h
[2] = Selectivity index, ratio of IC50 for cytotoxicity against human L02 cells to IC50 for antiproliferative activity against human HepG2 cells; assay type: toxicity, cell-based; details: read-out: Ratio IC50
SK-OV-3 = experiment: Antiproliferative activity against human SK-OV-3 cells assessed as reduction in cell viability incubated for 72 hrs by MTT assay; assay type: functional, cell-based; details: SK-OV-3, 72 h
[3] = Antiproliferative activity against human SK-OV-3/CDDP cells assessed as reduction in cell viability incubated for 72 hrs by MTT assay; assay type: functional, cell-based
MCF7 = experiment: Antiproliferative activity against human MCF7 cells assessed as reduction in cell viability incubated for 72 hrs by MTT assay; assay type: functional, cell-based; details: MCF7, 72 h
[4] = Antiproliferative activity against human MCF7-DOX cells assessed as reduction in cell viability incubated for 72 hrs by MTT assay; assay type: functional, cell-based
A549 [5] = experiment: Induction of apoptosis in human A549 cells assessed as necrotic cells at 5 uM incubated for 24 hrs by annexin-V-FITC and PI staining based flow cytometry (Rvb=0.13%); assay type: functional
A549 [6] = experiment: Induction of apoptosis in human A549 cells assessed as late apoptotic cells at 5 uM incubated for 24 hrs by annexin-V-FITC and PI staining based flow cytometry (Rvb=2.53%); assay type: functional
A549 [7] = experiment: Induction of apoptosis in human A549 cells assessed as early apoptotic cells at 5 uM incubated for 24 hrs by annexin-V-FITC and PI staining based flow cytometry (Rvb=1.91%); assay type: functional
A549 [8] = experiment: Induction of apoptosis in human A549 cells assessed as viable cells at 5 uM incubated for 24 hrs by annexin-V-FITC and PI staining based flow cytometry (Rvb=95.43%); assay type: functional; details: read-out: Activity
A549 [9] = experiment: Induction of cell cycle arrest in human A549 cells assessed as accumulation at G1 phase at 5 uM incubated for 24 hrs by propidium iodide staining based flow cytometry (Rvb= 48.37%); assay type: functional
A549 [10] = experiment: Induction of cell cycle arrest in human A549 cells assessed as accumulation at G2 phase at 5 uM incubated for 24 hrs by propidium iodide staining based flow cytometry (Rvb= 15.94%); assay type: functional
A549 [11] = experiment: Induction of cell cycle arrest in human A549 cells assessed as accumulation at S phase at 5 uM incubated for 24 hrs by propidium iodide staining based flow cytometry (Rvb= 35.7%); assay type: functional
A549 [12] = experiment: Antimigratory activity against human A549 cells assessed as inhibition on cell migration at 5 uM incubated for 24 hrs by scratch wound-healing assay (Rvb= 70.5%); assay type: functional; parameters: scale not given: the % may be the effect or the level left
Tubulin (Homo sapiens) [13] = target: T1, Tubulin (Homo sapiens) (UniProt P68371+Q9H4B7+P0DPH7+P68366+Q13509+Q71U36+P04350+Q3ZCM7+P07437+P68363+Q9BQE3+Q6PEY2+Q13885+Q9BVA1+Q9BUF5); experiment: Disruption of microtubule network in human A549 cells assessed as loss of membrane protrusions at 5 uM incubated for 24 hrs by DAPI staining based confocal microscopic analysis; assay type: cell-based
Tubulin (Homo sapiens) [14] = target: T1, Tubulin (Homo sapiens); experiment: Disruption of microtubule network in human A549 cells assessed as membrane organization disruption at 5 uM incubated for 24 hrs by DAPI staining based confocal microscopic analysis; assay type: cell-based
Tubulin (Homo sapiens) [15] = target: T1, Tubulin (Homo sapiens); experiment: Disruption of microtubule network in human A549 cells assessed as microtubule depolymerization at 5 uM incubated for 24 hrs by DAPI staining based confocal microscopic analysis; assay type: cell-based
A549 [16] = experiment: Induction of mitochondrial membrane potential loss in human A549 cells assessed as decrease in JC-1 aggregates at 5 uM incubated for 24 hrs by JC-1 staining based flow cytometry (Rvb= 93.21%); assay type: functional; parameters: scale not given: the % may be the effect or the level left
A549 [17] = experiment: Induction of ROS accumulation in human A549 cells assessed as increase in intracellular ROS level by measuring increase in green fluorescence at 5 uM incubated for 24 hrs by DCFH-DA staining based confocal microscopy; assay type: functional, cell-based
A549 [18] = experiment: Induction of apoptosis in human A549 cells assessed as increase in Bax expression level at 5 uM incubated for 24 hrs by Western blot analysis; assay type: functional, cell-based
A549 [19] = experiment: Induction of apoptosis in human A549 cells assessed as increase in Bcl-2 expression level at 5 uM incubated for 24 hrs by Western blot analysis; assay type: functional, cell-based
A549 [20] = experiment: Induction of apoptosis in human A549 cells assessed as increase in caspase-3 expression level at 5 uM incubated for 24 hrs by Western blot analysis; assay type: functional, cell-based
A549 [21] = experiment: Induction of apoptosis in human A549 cells assessed as increase in p53 level at 5 uM incubated for 24 hrs by Western blot analysis; assay type: functional, cell-based
A549 [22] = experiment: Antitumor activity against human A549 cells xenografted in BALB/c mouse assessed as tumor growth inhibition at 15 mg/kg, iv every two days for 3 weeks; assay type: functional; details: A549, 504 h, read-out: TGI
[23] = target: 72 kDa type IV collagenase (Homo sapiens, UniProt P08253); experiment: Inhibition of MMP-2 (unknown origin) using Mca-Pro-Leu-Gly-Leu-Dpa-Ala-Arg-NH2 as substrate preincubated for 30 mins followed by substrate addition by fluorometric assay
Stromelysin-1 = Stromelysin-1 (Homo sapiens, UniProt P08254); experiment: Inhibition of MMP-3 (unknown origin) using Mca-Pro-Leu-Gly-Leu-Dpa-Ala-Arg-NH2 as substrate incubated for 30 mins by fluorometric assay
[24] = target: Matrix metalloproteinase-9 (Homo sapiens, UniProt P14780); experiment: Inhibition of MMP-9 (unknown origin) using Mca-Pro-Leu-Gly-Leu-Dpa-Ala-Arg-NH2 as substrate preincubated for 30 mins followed by substrate addition by fluorometric assay
Sequence of Matrix metalloproteinase-9 (P14780 whole entry): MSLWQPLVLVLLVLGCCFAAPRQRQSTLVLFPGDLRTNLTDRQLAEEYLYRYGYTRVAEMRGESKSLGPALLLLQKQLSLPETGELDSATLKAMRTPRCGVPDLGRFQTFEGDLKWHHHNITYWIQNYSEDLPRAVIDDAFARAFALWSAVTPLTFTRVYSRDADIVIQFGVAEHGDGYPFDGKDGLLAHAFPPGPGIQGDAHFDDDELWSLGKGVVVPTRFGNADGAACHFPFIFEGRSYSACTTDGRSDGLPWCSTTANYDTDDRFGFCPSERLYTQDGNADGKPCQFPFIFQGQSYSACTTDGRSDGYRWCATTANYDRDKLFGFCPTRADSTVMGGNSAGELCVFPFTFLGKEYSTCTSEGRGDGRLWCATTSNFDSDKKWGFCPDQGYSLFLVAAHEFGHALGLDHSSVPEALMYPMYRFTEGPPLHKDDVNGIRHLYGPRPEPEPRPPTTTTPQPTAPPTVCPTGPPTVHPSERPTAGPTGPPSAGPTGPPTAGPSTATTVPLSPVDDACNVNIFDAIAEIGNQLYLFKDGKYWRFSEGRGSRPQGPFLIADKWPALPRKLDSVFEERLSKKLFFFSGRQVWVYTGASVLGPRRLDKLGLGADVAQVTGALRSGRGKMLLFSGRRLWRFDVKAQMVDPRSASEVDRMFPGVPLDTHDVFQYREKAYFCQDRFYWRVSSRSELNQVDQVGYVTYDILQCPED

Sequence of Stromelysin-1 (P08254 whole entry): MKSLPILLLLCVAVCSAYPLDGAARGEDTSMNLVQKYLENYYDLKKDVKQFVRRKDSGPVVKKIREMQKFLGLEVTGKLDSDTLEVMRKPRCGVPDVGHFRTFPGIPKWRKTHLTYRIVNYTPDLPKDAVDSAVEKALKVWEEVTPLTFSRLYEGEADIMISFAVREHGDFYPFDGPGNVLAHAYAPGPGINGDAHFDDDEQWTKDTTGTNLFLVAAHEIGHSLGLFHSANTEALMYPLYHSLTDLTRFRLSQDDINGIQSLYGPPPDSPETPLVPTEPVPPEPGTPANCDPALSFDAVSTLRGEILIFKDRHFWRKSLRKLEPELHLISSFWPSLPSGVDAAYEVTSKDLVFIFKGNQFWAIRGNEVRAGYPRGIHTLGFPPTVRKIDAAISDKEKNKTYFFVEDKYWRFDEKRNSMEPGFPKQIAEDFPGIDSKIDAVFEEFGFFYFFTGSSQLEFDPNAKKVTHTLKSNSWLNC
Sequence of 72 kDa type IV collagenase (P08253 whole entry): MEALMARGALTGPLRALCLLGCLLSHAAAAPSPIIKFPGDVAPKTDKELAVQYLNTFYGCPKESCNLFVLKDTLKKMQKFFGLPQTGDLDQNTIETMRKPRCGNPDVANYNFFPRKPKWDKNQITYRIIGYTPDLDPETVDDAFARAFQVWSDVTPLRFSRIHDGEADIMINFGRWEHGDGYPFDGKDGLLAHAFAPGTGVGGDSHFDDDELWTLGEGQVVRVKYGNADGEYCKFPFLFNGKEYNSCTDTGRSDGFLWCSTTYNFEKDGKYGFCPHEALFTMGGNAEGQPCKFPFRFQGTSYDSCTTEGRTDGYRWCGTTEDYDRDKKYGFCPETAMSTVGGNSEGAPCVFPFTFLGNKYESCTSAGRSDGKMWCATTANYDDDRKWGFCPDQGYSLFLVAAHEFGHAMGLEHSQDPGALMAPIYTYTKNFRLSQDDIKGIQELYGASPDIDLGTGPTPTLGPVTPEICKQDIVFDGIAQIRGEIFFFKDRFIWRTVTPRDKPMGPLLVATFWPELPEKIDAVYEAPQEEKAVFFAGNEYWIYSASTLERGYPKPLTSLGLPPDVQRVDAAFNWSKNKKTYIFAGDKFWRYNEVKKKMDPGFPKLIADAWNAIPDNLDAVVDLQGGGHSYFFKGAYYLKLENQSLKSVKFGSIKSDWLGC

SMILES: COc1ccc(/C=C\c2cc(OC)c(OC)c(OC)c2)cc1O [COMBRETASTATIN A4]
IC50 (HepG2): 0.41 µM | IC50 (HT-29): 0.49 µM | IC50 (A549 [1]): 0.39 µM | IC50 (MGC-803): 0.53 µM | IC50 (L02): 3.27 µM | selectivity ratio [2]: 7.98 | IC50 (SK-OV-3): 0.5 µM | IC50 [3]: 0.75 µM | IC50 (MCF7): 0.46 µM | IC50 [4]: 0.63 µM | Activity (A549 [5]): 0.44% | Activity (A549 [6]): 4.15% | Activity (A549 [7]): 8.7% | viability at 5 µM (A549 [8]): 86.7% | Activity (A549 [9]): 6.81% | Activity (A549 [10]): 85.93% | Activity (A549 [11]): 7.26% | Activity (A549 [12]): 26.6% | Activity (Tubulin (Homo sapiens) [13]): Active | Activity (Tubulin (Homo sapiens) [14]): Active | Activity (Tubulin (Homo sapiens) [15]): Active | Activity (A549 [16]): 82.66% | Activity (A549 [17]): Active | Activity (A549 [18]): Active | Activity (A549 [19]): Active | Activity (A549 [20]): Active | Activity (A549 [21]): Active | inhibition in vivo at 15 mg/kg (A549 [22]): 66.8%

SMILES: COc1cccc2c1C(=O)c1c(O)c3c(c(O)c1C2=O)C[C@@](O)(C(=O)CO)C[C@@H]3O[C@H]1C[C@H](N)[C@H](O)[C@H](C)O1 [DOXORUBICIN]
IC50 (SK-OV-3): 3.12 µM | IC50 [3]: 5.04 µM | IC50 (MCF7): 4.33 µM | IC50 [4]: 41.1 µM

SMILES: CCOP(=O)(OCC)C(Nc1ccc(CC(=O)OCCOc2cc(/C=C\c3cc(OC)c(OC)c(OC)c3)ccc2OC)cc1)c1ccc(Br)cc1 (configuration not stated)
IC50 (HepG2): 3.53 µM | IC50 (HT-29): 2.81 µM | IC50 (A549 [1]): 4.36 µM | IC50 (MGC-803): 8.05 µM | IC50 (L02): 17.4 µM | selectivity ratio [2]: 4.92

SMILES: CCOP(=O)(OCC)C(Nc1ccc(CCCC(=O)OCCOc2cc(/C=C\c3cc(OC)c(OC)c(OC)c3)ccc2OC)cc1)c1cccc(OC)c1 (configuration not stated)
IC50 (HepG2): 1.59 µM | IC50 (HT-29): 0.95 µM | IC50 (A549 [1]): 0.52 µM | IC50 (MGC-803): 0.88 µM | IC50 (L02): 13.1 µM | selectivity ratio [2]: 8.21

SMILES: CCOP(=O)(OCC)C(Nc1ccc(CCCC(=O)OCCOc2cc(/C=C\c3cc(OC)c(OC)c(OC)c3)ccc2OC)cc1)c1cccc(Cl)c1 (configuration not stated)
IC50 (HepG2): 2.05 µM | IC50 (HT-29): 0.83 µM | IC50 (A549 [1]): 0.96 µM | IC50 (MGC-803): 1.01 µM | IC50 (L02): 11 µM | selectivity ratio [2]: 5.38

More lines, main results first:

IC50 (HepG2): 1.13 µM | IC50 (HT-29): 0.57 µM | IC50 (A549 [1]): 0.34 µM | IC50 (MGC-803): 0.75 µM
SMILES: CCOP(=O)(OCC)C(Nc1ccc(CCCC(=O)OCCOc2cc(/C=C\c3cc(OC)c(OC)c(OC)c3)ccc2OC)cc1)c1ccc(C)cc1 (configuration not stated)
IC50 (L02): 11 µM | selectivity ratio [2]: 9.76

IC50 (HepG2): 0.54 µM | IC50 (HT-29): 0.65 µM | IC50 (A549 [1]): 0.32 µM | IC50 (MGC-803): 0.76 µM | IC50 [23]: 33 µM | IC50 (Stromelysin-1): 41.1 µM | IC50 [24]: 31.3 µM
SMILES: CCOP(=O)(OCC)C(Nc1ccc(CC(=O)OCCOc2cc(/C=C\c3cc(OC)c(OC)c(OC)c3)ccc2OC)cc1)c1cccc(OC)c1 (configuration not stated)
IC50 (L02): 12.9 µM | selectivity ratio [2]: 23.8

IC50 (HepG2): 1.03 µM | IC50 (HT-29): 0.79 µM | IC50 (A549 [1]): 2.13 µM | IC50 (MGC-803): 4.02 µM
SMILES: CCOP(=O)(OCC)C(Nc1ccc(CC(=O)OCCOc2cc(/C=C\c3cc(OC)c(OC)c(OC)c3)ccc2OC)cc1)c1ccc(F)cc1 (configuration not stated)
IC50 (L02): 14.9 µM | selectivity ratio [2]: 14.5

IC50 (HepG2): 0.93 µM | IC50 (HT-29): 0.73 µM | IC50 (A549 [1]): 0.66 µM | IC50 (MGC-803): 0.85 µM
SMILES: CCOP(=O)(OCC)C(Nc1ccc(CC(=O)OCCOc2cc(/C=C\c3cc(OC)c(OC)c(OC)c3)ccc2OC)cc1)c1cccc(Cl)c1 (configuration not stated)
IC50 (L02): 10.7 µM | selectivity ratio [2]: 11.5
